The target in this assay is T1, human DGAT2 (hDGAT2) (Homo sapiens, UniProt Q96PD7).
T1 construct: made in house; host or cells: Sf-9 insect cells (baculovirus), membrane fraction
T1 sequence (Q96PD7 1-388): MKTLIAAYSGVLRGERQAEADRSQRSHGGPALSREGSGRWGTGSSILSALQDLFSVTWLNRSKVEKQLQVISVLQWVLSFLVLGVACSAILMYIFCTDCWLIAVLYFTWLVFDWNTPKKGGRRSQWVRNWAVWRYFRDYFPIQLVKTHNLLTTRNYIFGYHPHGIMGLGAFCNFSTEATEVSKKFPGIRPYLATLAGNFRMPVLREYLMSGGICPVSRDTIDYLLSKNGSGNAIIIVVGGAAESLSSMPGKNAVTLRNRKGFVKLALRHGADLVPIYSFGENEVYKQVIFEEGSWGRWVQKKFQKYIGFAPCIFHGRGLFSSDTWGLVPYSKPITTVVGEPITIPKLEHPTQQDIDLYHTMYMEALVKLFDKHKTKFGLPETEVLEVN
Kind of assay: DGAT2 Enzymatic Activity Assay. It is filed as biochemical. To be noted: membrane prep of Sf-9 cells expressing hDGAT2; 13C18-triolein product by LC/MS/MS; 25 μM diolein, 5 μM 13C oleoyl-CoA, rt. The method, boiled down:
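Membranes from Sf-9 cells expressing untagged human DGAT2 (baculovirus, 48 h) used as enzyme at rt. The product ^13C18-triolein is quantified by LC/MS/MS against a ^13C21-triolein internal standard. Percent inhibition is taken from high and low controls, and IC50 is derived.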

SMILES strings stand for the structures.

On to `Cc1c(C(=O)NC2(C)CCS(=O)(=O)CC2)nc2ccc(OCc3ncccc3OCC(F)(F)F)cn12` [Example 123, 3-methyl-N-(4-methyl-1,1-dioxo-thian-4-yl)-6-[[3-(2,2,2-trifluoroethoxy)-2-pyridyl]methoxy]imidazo[1,2-a]pyridine-2-carboxamide], for which the midpoint of inhibition, the IC50, lay at 93 nM. As for `CCOc1ccccc1COc1ccc2nc(C(=O)NC3(C)CCS(=O)(=O)CC3)c(C)n2c1` [Example 124, 6-[(2-ethoxyphenyl)methoxy]-3-methyl-N-(4-methyl-1,1-dioxo-thian-4-yl)imidazo[1,2-a]pyridine-2-carboxamide], the figure is 5.7 nM; as for `CCOc1cccnc1COc1ccc2nc(C(=O)NC3(C)CCS(=O)(=O)CC3)c(C)n2c1` [Example 125, 6-[(3-ethoxy-2-pyridyl)methoxy]-3-methyl-N-(4-methyl-1,1-dioxo-thian-4-yl)imidazo[1,2-a]pyridine-2-carboxamide], 4.9 nM.

`Cc1c(C(=O)NC2(C)CCS(=O)(=O)CC2)nc2ccc(OCc3ccc(F)cc3)cn12` [Example 126, 6-[(4-fluorophenyl)methoxy]-3-methyl-N-(4-methyl-1,1-dioxo-thian-4-yl)imidazo[1,2-a]pyridine-2-carboxamide]: the IC50 was 465 nM.

Compound `Cc1c(C(=O)NC2(C)CCS(=O)(=O)CC2)nc2ccc(OCc3ccccc3OC(F)F)cn12` [Example 127, 6-[[2-(difluoromethoxy)phenyl]methoxy]-3-methyl-N-(4-methyl-1,1-dioxo-thian-4-yl)imidazo[1,2-a]pyridine-2-carboxamide] gave an IC50 of 6.5 nM. With `Cc1c(C(=O)NC2(C)CCS(=O)(=O)CC2)nc2ccc(OCCC(F)(F)F)cn12` [Example 128, 3-methyl-N-(4-methyl-1,1-dioxo-thian-4-yl)-6-(3,3,3-trifluoropropoxy)imidazo[1,2-a]pyridine-2-carboxamide] the figure was more than 9990 nM.

`CCOCC(C)(C)COc1ccc2nc(C(=O)NC3(C)CCS(=O)(=O)CC3)c(C)n2c1` [Example 129, 6-(3-ethoxy-2,2-dimethyl-propoxy)-3-methyl-N-(4-methyl-1,1-dioxo-thian-4-yl)imidazo[1,2-a]pyridine-2-carboxamide] showed an IC50 of 161 nM. With `CC1(NC(=O)c2nc3ccc(Oc4ncccc4OCC(F)(F)F)cn3c2Cl)CCS(=O)(=O)CC1` [Example 130, 3-chloro-N-(4-methyl-1,1-dioxo-thian-4-yl)-6-[[3-(2,2,2-trifluoroethoxy)-2-pyridyl]oxy]imidazo[1,2-a]pyridine-2-carboxamide] the figure was 3.3 nM. As for `CC1(NC(=O)c2nc3ccc(Oc4ncccc4OCC(F)(F)F)cn3c2O)CCS(=O)(=O)CC1` [Example 131, 3-hydroxy-N-(4-methyl-1,1-dioxo-thian-4-yl)-6-[[3-(2,2,2-trifluoroethoxy)-2-pyridyl]oxy]imidazo[1,2-a]pyridine-2-carboxamide], inhibition was half-maximal at 34 nM (IC50). With `CC1(NC(=O)c2nc3ccc(Oc4ncccc4OCC(F)(F)F)cn3c2C(=O)O)CCS(=O)(=O)CC1` [Example 132, 2-((4-methyl-1,1-dioxidotetrahydro-2H-thiopyran-4-yl)carbamoyl)-6-((3-(2,2,2-trifluoroethoxy)pyridin-2-yl)oxy)imidazo[1,2-a]pyridine-3-carboxylic acid] the figure was more than 9990 nM; with `CC1(NC(=O)c2nc3ccc(Oc4ncccc4OCC(F)(F)F)cn3c2C(N)=O)CCS(=O)(=O)CC1` [Example 133, N2-(4-methyl-1,1-dioxo-thian-4-yl)-6-[[3-(2,2,2-trifluoroethoxy)-2-pyridyl]oxy-]imidazo[1,2-a]pyridine-2,3-dicarboxamide], 28 nM. On to `COc1c(C(=O)NC2(C)CCS(=O)(=O)CC2)nc2ccc(Oc3ncccc3OCC(F)(F)F)cn12` [Example 134, 3-methoxy-N-(4-methyl-1,1-dioxo-thian-4-yl)-6-[[3-(2,2,2-trifluoroethoxy)-2-pyridyl]oxy]imidazo[1,2-a]pyridine-2-carboxamide], for which 6.2 nM corresponded to half-maximal inhibition (IC50).

`COc1c(C(=O)NC2(C)CS(=O)(=O)C2)nc2ccc(Oc3ncc(F)cc3OCC(F)(F)F)cn12` [Example 135, 6-[[5-fluoro-3-(2,2,2-trifluoroethoxy)-2-pyridyl]oxy]-3-methoxy-N-(3-methyl-1,1-dioxo-thietan-3-yl)imidazo[1,2-a]pyridin-1-ium-2-carboxamide;2,2,2-trifluoroacetate] had a concentration for half-maximal inhibition (IC50) of 62 nM. As for `CC1(NC(=O)c2nc3ccc(Oc4ncccc4OCC(F)(F)F)cn3c2C(F)(F)F)CCS(=O)(=O)CC1` [Example 136, N-(4-methyl-1,1-dioxo-thian-4-yl)-6-[[3-(2,2,2-trifluoroethoxy)-2-pyridyl]oxy]-3-(trifluoromethyl)imidazo[1,2-a]pyridine-2-carboxamide], the figure is 146 nM; as for `CC1(NC(=O)c2nc3ccc(Oc4ncccc4OCC(F)(F)F)cn3c2CO)CCS(=O)(=O)CC1` [Example 137, 3-(hydroxymethyl)-N-(4-methyl-1,1-dioxo-thian-4-yl)-6-[3-(2,2,2-trifluoroethoxy)pyridine-2-yl]oxy-imidazo[1,2-a]pyridine-2-carboxamide], 11 nM. As for `Cc1c(C(=O)NC2(C)CCS(=O)(=O)CC2)nc2cc(C#N)c(Oc3ncc(Cl)cc3OCC(F)(F)F)cn12` [Example 138, 6-[5-chloro-3-(2,2,2-trifluoroethoxy)pyridine-2-yl]oxy-7-cyano-3-methyl-N-(4-methyl-1,1-dioxo-thian-4-yl)imidazo[1,2-a]pyridine-2-carboxamide], the figure is 25 nM; as for `CC1(NC(=O)c2nc3ccc(Oc4ncc(F)cc4OCC(F)(F)F)c(Cl)n3c2Cl)CCS(=O)(=O)CC1` [Example 139, 3,5-dichloro-6-[[5-fluoro-3-(2,2,2-trifluoroethoxy)-2-pyridyl]oxy]-N-(4-methyl-1,1-dioxo-thian-4-yl)imidazo[1,2-a]pyridine-2-carboxamide], 0.7 nM. With `CC1(NC(=O)c2nc3ccc(Oc4ncc(F)cc4OCC(F)(F)F)c(Cl)n3c2Cl)CS(=O)(=O)C1` [Example 140, 3,5-dichloro-6-[[5-fluoro-3-(2,2,2-trifluoroethoxy)-2-pyridyl]oxy]-N-(3-methyl-1,1-dioxo-thietan-3-yl)imidazo[1,2-a]pyridine-2-carboxamide], the IC50 turned out to be 2.1 nM.

With `Cc1c(Oc2ncc(Cl)cc2OCC(F)(F)F)ccc2nc(C(=O)NC3(C)CCS(=O)(=O)CC3)c(Cl)n12` [Example 141, 3-chloro-6-[[5-chloro-3-(2,2,2-trifluoroethoxy)-2-pyridyl]oxy]-5-methyl-N-(4-methyl-1,1-dioxo-thian-4-yl)imidazo[1,2-a]pyridine-2-carboxamide], it took 2.6 nM to reach half-maximal inhibition (IC50). In turn, `Cc1c(Oc2ncc(Cl)cc2OCC(F)(F)F)ccc2nc(C(=O)NC3(C)CCS(=O)(=O)CC3)c(F)n12` [Example 142, 6-[[5-chloro-3-(2,2,2-trifluoroethoxy)-2-pyridyl]oxy]-3-fluoro-5-methyl-N-(4-methyl-1,1-dioxo-thian-4-yl)imidazo[1,2-a]pyridine-2-carboxamide] gave an IC50 of 3.5 nM. As for `Cc1c(Oc2ncc(Cl)cc2OCC(C)(F)F)ccc2nc(C(=O)NC3(C)CCS(=O)(=O)CC3)c(F)n12` [Example 143, 6-[[5-chloro-3-(2,2-difluoropropoxy)-2-pyridyl]oxy]-3-fluoro-5-methyl-N-(4-methyl-1,1-dioxo-thian-4-yl)imidazo[1,2-a]pyridine-2-carboxamide], the figure is 37 nM.

One may read the IC50 as the concentration that gives 50% inhibition. Read a high IC50 as weaker potency in that assay.

The values above are taken from patent publication US20260176267A1, “PREPARATION OF IMIDAZOPYRIDINE AND IMIDAZOPYRIDAZINE DERIVATIVES AS NOVEL DIACYLGLYCERIDE O-ACYLTRANSFERASE 2 INHIBITORS” (Merck Sharp & Dohme LLC, priority 2022, published 2026).
